Assays:
Human Plasminogen = Human Plasminogen (Homo sapiens, UniProt P00747); test: Coupled in vitro fibrinolytic assay (fibrin clot lysis, absorbance at 405 nm); assay type: biochemical; conditions: for Potency TXA = 100: relative to TXA = 100
Excerpt: The principles and procedures for these assays are as follows. • a) The coupled enzyme reactions in these fibrinolytic assays The assays are constituted of four principal reactions. These are: • (a) The thrombin catalyzed conversion of fibrinogen to the insoluble fibrin clot. Soluble human fibrinogen is a constituent of these assays. The assays are initiated by the addition of human Thrombin, causing the known partial proteolysis of fibrinogen to generate fibrin, which polymerizes to yield an insoluble, opaque “clot”. This is not the same as a fibrin clot obtained physiologically, as it lacks numerous attributes of a physiological clot. […] It is known to bind with a very high affinity to insoluble polymerized fibrin, while it has a much weaker affinity for Fibrinogen. […] All constituents are prepared at appropriate higher stock concentrations from which aliquots are taken and mixed to a final volume of 400 μliters. Included ingredients and their final (assay) concentration are: […] The plates are placed in the plate reader sample compartment maintained at 37°. Assays are conducted with or without pre incubating the fibrinolytic inhibitors with the protein(s) of interest overnight. These two protocols are as follows: • (a) Experiments without pre-incubation: These assays are constituted as follows: […] The assay solutions are mixed & stirred, and the micro titer plate placed in the plate reader. Assays are initiated by delivering a solution (20 μliters) containing Thrombin and either Urokinase or TPA. […] Following pre incubation, the assay solutions are warmed to 37° in the plate reader, and the assays carried out as in (a), above, being initiated with the addition of Thrombin and TPA or Urokinase. The role of Antifibrinolytics in slowing clot dissolution is illustrated in the FIGURE, which illustrates the type of data obtained from the coupled Fribrinolysis Assays described above in Protocols 3(a) and 3(b). […] This represents the formation of fibrin in the assays. […] As a result, an exponential decay in the amount of fibrin present in the assays is observed. This process is illustrated above over a 10 to 30 minute period in control assays, in the absence of antifibrinolytic compounds. As a rough approximation, these can be considered as two sequential exponential processes—the first, formation of fibrin, or the clot, preceding the second—clot breakdown or the fibrinolytic process. A rough measure of the efficacy of fibrinolytic inhibitors, as determined in these coupled assays, is the half-life of the pseudo exponential decline in the optical density of the assay mixtures in the second portion of the reaction. A more rigorous measure of the effectiveness of the compounds to inhibit fibrinolysis, and, by inference, physiological thrombolytic processes, can be obtained by recording the observed fibrinolytic half-lives as a function of the fibrinolytic inhibitor concentration.

Kringles = test: Ability to substitute for EACA/TXA in binding to Kringles; conditions: as determined by the applicant
Excerpt: The D-configuration is preferred in the terminal amino acid in order to protect these dipeptides from peptidases.

[1] = Compounds Preincubated with Plasminogen and Fibrinogen
[2] = Compounds Preincubated with Plasminogen and Fibrinogen, relative to control without inhibitor
[3] = No Preincubation, fibrin half life relative to control without inhibitor

Sequence of Human Plasminogen (P00747 20-810 limits assumed): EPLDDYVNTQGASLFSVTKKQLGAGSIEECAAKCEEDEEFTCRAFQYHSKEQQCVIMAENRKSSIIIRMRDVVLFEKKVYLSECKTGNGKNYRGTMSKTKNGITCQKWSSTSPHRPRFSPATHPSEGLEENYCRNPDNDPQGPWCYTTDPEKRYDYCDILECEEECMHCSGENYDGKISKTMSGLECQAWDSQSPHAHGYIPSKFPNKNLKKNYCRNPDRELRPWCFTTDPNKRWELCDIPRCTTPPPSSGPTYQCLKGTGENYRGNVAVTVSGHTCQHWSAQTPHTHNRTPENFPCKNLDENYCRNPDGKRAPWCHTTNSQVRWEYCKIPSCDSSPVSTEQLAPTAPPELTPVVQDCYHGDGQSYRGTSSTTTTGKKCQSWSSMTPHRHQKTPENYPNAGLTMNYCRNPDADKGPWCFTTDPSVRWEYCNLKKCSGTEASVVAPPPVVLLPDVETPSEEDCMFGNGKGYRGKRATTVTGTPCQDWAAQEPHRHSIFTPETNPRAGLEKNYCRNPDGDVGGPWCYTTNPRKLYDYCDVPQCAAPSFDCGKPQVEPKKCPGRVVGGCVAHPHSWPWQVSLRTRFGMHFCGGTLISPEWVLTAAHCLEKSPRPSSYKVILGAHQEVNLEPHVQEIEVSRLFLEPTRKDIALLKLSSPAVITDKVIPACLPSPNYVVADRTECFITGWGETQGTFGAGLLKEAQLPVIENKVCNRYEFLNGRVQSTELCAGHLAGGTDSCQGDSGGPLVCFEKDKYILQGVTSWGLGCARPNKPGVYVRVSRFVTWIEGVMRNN

Row | Compound | Inhibition Percent (Human Plasminogen; [1]) [%] | Potency TXA = 100 (Human Plasminogen; [1]) | Percent Of Control (Human Plasminogen; [2]) [%] | Inhibition Percent (Human Plasminogen; No Preincubation) [%] | Percent Of Control (Human Plasminogen; [3]) [%] | Potency TXA = 100 (Human Plasminogen; No Preincubation) | ability to substitute for EACA/TXA (Kringles) | anti-fibrinolytic effect compared with ACA or TXA (in words) (Human Plasminogen)
1 | NC[C@H]1CC[C@H](C(=O)O)CC1 [TXA, trans-4-(aminomethyl)cyclohexanecarboxylic acid] | 69.7 | 100 | 329 | 66.6 | 300 | 100 | – | –
2 | Cn1cncc1C[C@H](NC(=O)CCN)C(=O)O [Anserine] | – | – | – | – | – | – | substitute for EACA/TXA | –
3 | C[S+](C)C[C@H]1CC[C@H](C(=O)O)CC1.[Cl-] [TXA_S, trans-(4-dimethylthiomethyl) Cyclohexane-1-carboxylic acid sulfonium chloride] | 90.6 | 321 | – | 71.9 | 356 | 119 | – | functions as well as TXA in inhibiting fibrinolysis

Continued, in another order:

Row | Inhibition Percent (Human Plasminogen; [1]) [%] | Potency TXA = 100 (Human Plasminogen; [1]) | Percent Of Control (Human Plasminogen; [2]) [%] | Inhibition Percent (Human Plasminogen; No Preincubation) [%] | Percent Of Control (Human Plasminogen; [3]) [%] | Potency TXA = 100 (Human Plasminogen; No Preincubation) | ability to substitute for EACA/TXA (Kringles) | Compound | anti-fibrinolytic effect compared with ACA or TXA (in words) (Human Plasminogen)
4 | 88.5 | 264 | 870 | 70.0 | 333 | 111 | – | C[S+](C)CCCCCC(=O)O [ACA_S, 6-(S,S dimethylthio) Hexanoic acid sultane] | –
5 | 41.8 | 52 | 172 | 37.5 | 160 | 53 | – | NCCCCCC(=O)O [ACA, 6-aminohexanoic acid] | –
6 | – | – | – | – | – | – | substitute for EACA/TXA | NCCC(=O)N[C@@H](Cc1c[nH]cn1)C(=O)O [Carnosine, β-Alanyl histidine] | –
